Laboratory results as given in patent publication US11376231B2, “Compositions of bioactive fulvate fractions and uses thereof” (OMNI BIOCEUTICAL INNOVATIONS, INC., priority 2016, dated 2022).
Where two headings read alike, the source gives them in different places. Ends that are not written are not given here.

Assays:
[1] = system: human keratinocytes; experiment: Stimulation of keratinocytes: expression of antimicrobial peptides/polypeptides (Northern blot, ELISA, immunoblot, immunostaining); assay type: cell-based; settings: for expression of the antimicrobial peptides/polypeptides hCAP-18, hBD-3, NGAL, and SLPI: human keratinocytes; for mRNA for hBD-3 (induction): not detected in unstimulated cells
Protocol: SDS-PAGE and immunoblotting were performed with Bio-Rad systems according to instructions given by the manufacturer (Bio-Rad, Hercules, Calif.). For immunoblotting, after the transfer of proteins from the 14% polyacrylamide gels, the polyvinylidene difluoride (PVDF) membranes (Millipore, Bedford, Mass.) were blocked for 1 h with 5% skimmed milk in PBS. For detection of hCAP-18, NGAL, and SLPI, the PVDF membranes were incubated overnight with primary antibodies. The following day, the membranes were washed and incubated for 2 h with alkaline phosphatase-conjugated secondary antibodies (DAKO, Glostrup, Denmark) then washed and visualized by 5'-bromo-chloro-indolyl phosphate (Sigma-Aldrich) and nitro blue tetrazolium (Sigma-Aldrich). Medium from keratinocytes was extracted with MacroPrep CM Support beads (Bio-Rad) overnight at 4° C. The beads were subsequently washed and bound material was eluted with 30% acetic acid. The eluted material was dialyzed in 5% acetic acid and lyophilized before resuspension in sample buffer for acid urea (AU)-PAGE. AU-PAGE and immunoblotting were performed according to instructions given by the manufacturer (Hoeffer, San Francisco, Calif.). After transfer of proteins from the 12.5% acrylamide gels, the PVDF membranes were fixed for 30 min in TBS with 0.05% glutaraldehyde (Sigma-Aldrich), followed by blocking with Superblock Blocking Buffer (Pierce, Rockford, Ill.). For visualization of hBD-3, the PVDF membranes were incubated overnight with primary antibodies. The following day, the membranes were incubated for 2 h with HRP-conjugated secondary antibodies, (Pierce) and visualized by Immun-Star HRP luminal/enhancer and Immun-Star peroxide buffer (Bio-Rad). Cells were grown in serum-free keratinocyte medium from Clonetics (KGM-2 Bullet Kit; San Diego, Calif.) with bovine pituitary extract, transferrin, human epidermal growth factor (EGF), hydrocortisone, gentamicin, amphotericin B, and epinephrine, but without insulin. Cells were stimulated beginning 24 h after complete confluence was reached. Cells and medium was harvested 0, 3, 6, 12, 24, and 48 h after stimulation with IGF-I (100 ng/mL), TGF-α (50 ng/mL), TGF-β1 (10 ng/mL), hFGF (100 ng/mL), IGF-I/TGF-α, IL-1β (20 ng/mL), IL-6 (100 ng/mL), EGF (100 ng/mL), and INF-α (20 ng/mL). […] The RNA was transferred to a Hybond-N membrane (Amersham Pharmacia Biotech, Little Chalfont, U.K.) by capillary blotting and was fixed by UV irradiation. The filters were pre-hybridized for a minimum of 30 min at 42° C. in 10 mL of ULTRAhyb (Ambion, Austin, Tex.) and hybridized overnight at 42° C. after the addition of an additional 5 mL of ULTRAhyb containing the P-labeled probe. The membranes were washed twice for 5 min each time at 42° C. in 2×SSC (1×SSC=150 mM NaCl/15 mM sodium citrate, pH 7.0)/0.1% SDS, followed by twice for 15 min each time in 2×SSC/0.1% SDS, once for 15 min in 0.2×SSC/0.1% SDS, and once for 15 min in 0.1×SSC/0.1% SDS at 42° C. The blot was developed and quantified by a phosphorimager (Fuji Imager Analyzer BAS-2500, Image Reader version 1.4E, image Gauge version 3.01 software; Fuji, Stockholm, Sweden). The sizes of the mRNAs were determined by reference to 18S and 285 rRNA, which were visualized by ethidium bromide staining. The membranes were stripped by boiling in 0.1% SDS before re-hybridization. The probes used for hybridization were cDNA fragments radiolabeled with [α-P]dCTP using the Random Primers DNA Labeling System (Life Technologies). The probes NGAL, hCAP-18, hBD-2, and β-actin have previously been described. The probes for SLPI, hBD-1, and hBD-3 were amplified from cDNA from keratinocytes with the following primers: SLPI, [NT] II) NO: 1), and [NT] ID NO: 2); hBD-1, [NT] ID NO: 3), and [NT] ID NO: 4); and hBD-3, [NT] ID NO: 5), and [NT] ID NO: 6). The probe for hBD-4 was amplified from genomic DNA using the following primers: [NT] ID NO: 7) and [NT] II) NO: 8). PCR-amplified probes were cloned into plasmids and verified by DNA sequencing. […]

[2] = system: chronic wounds; set-up: key: N.S. = not statistically significant; settings: cited from earlier work
[3] = system: CBA Epidermal Culture; experiment: Tissue repair in human epidermal cell culture with 4-mm defect (bFGF, M-007); assay type: cell-based
Protocol: A 4-mm mucosal defect was surgically made in the CBA Epidermal Culture. The formulation Sol. of bFGF, M-007, and control saline was injected along the edge of the wound defect immediately after scratch. The control group received only phosphate-buffered saline vehicle.
By day 5, FGFR1-positive cells were seen below the stratum corneum, even in the control group. […] Each sample was repeated in duplicate, thus FIG. 2 represents the average of each sample. P1-2 are control plates 1 and 2 and are epidermal cell culture with no external treatment. P3-4 is epidermal cell culture treated with phosphate buffered saline only. P5-6 is epidermal cell culture treated with bFGF. P7-8 is epidermal cell culture treated with bFGF sol. No. 00376. […] No. 00321A. […] No. 0032113. […] No. 00321A @ 70/30 ratio. […] No. 00321A @ 30/70 ratio. […] No. 00321A 70/30 ratio. P21-22 is epidermal cell culture treated with bFGF sol. […] No. 00321A @50/50 ratio. P23-24 is epidermal cell culture treated with bFGF sol. […] No. 00321A @30/70 ratio.

[4] = system: skin wounds; experiment: Screen of tigerinin-based peptides for wound-healing ability
Excerpt: Two antimicrobial peptides (tigerinin-RC1: […] (SEQ ID NO: 9); tigerinin-RC2: […] (SEQ ID NO: 10)) have been previously identified from the skin secretions of Fejervarya cancrivora. […] Here, several peptides based on tigerinins are synthesized to screen candidates containing potential wound-healing ability.

**Q.** With IGF-I: insulin growth factor-1 as the substance, how does the “expression of hBD-1 relative to the housekeeping gene β-actin” value ([1]; 24 h) read?
**A.** 3 fold

**Q.** And the “expression of hBD-1 relative to the housekeeping gene β-actin” value ([1]; 48 h)?
**A.** 7 fold

**Q.** What about the “expression of the antimicrobial peptides/polypeptides hCAP-18, hBD-3, NGAL, and SLPI” value [1] of the same substance?
**A.** induce or enhance

**Q.** What about the “hCAP-18 at the protein level (ELISA) and the mRNA level” value ([1]; keratinocytes) of the same substance?
**A.** up-regulated

**Q.** What about the “mRNA for hBD-3 (induction)” value ([1]; keratinocytes) of the same substance?
**A.** did not induce

**Q.** What does the source list for bFGF: basic fibroblast growth factor?
**A.** Results ([2]; diabetic (17), 0.25 to 0.75 μg/cm^2 daily, Richard et al.): N.S.; Results ([2]; pressure (50), 1, 5, and 10 μg/cm^2, Robson et al.): N.S.; collagen maturation (histologic analysis) [3]: relatively faster; granular tissue formation and re-epithelialization [3]: significantly accelerated; number and intensity of FGFR1-positive cells versus control group ([3]; day 5): greater than in the control group

**Q.** With TGF-α: a transforming growth factor as the substance, how does the “expression of the antimicrobial peptides/polypeptides hCAP-18, hBD-3, NGAL, and SLPI” value [1] read?
**A.** induce or enhance

**Q.** And the “mRNA for hBD-3 (induction)” value ([1]; keratinocytes)?
**A.** significantly induced

**Q.** And the “hBD-3 in the medium by immunoblot” value ([1]; medium from stimulated keratinocytes, not in unstimulated cells)?
**A.** detected

**Q.** With “GM-CSF: granulocyte-macrophage colony-stimulating factor” as the substance, how does the Results ([2]; venous + arterial (25), 400 μg injected once around the wound, da Costa et al.) read?
**A.** N.S.

**Q.** Which Results ([2]; pressure (25), 0.01, 0.1, and 1 μg/cm^2 daily, Robson et al.) does the source give for IL-1B: interleukin-1B here?
**A.** N.S.

**Q.** With HGH: human growth hormone as the substance, how does the Results ([2]; venous (37), 1 IU/cm^2 per week, Rasmussen et al.) read?
**A.** N.S.

**Q.** With “c [WCKPKPKPRCH-NH2] (SEQ ID NO: 11) (not fully specified (bridges); also: cyclic, ring type and places not given here; listed as Fejervarya cancrivora) [M-007 fulvate isolated peptide, tigerinin-based synthesized small peptide]” as the substance, how does the wound-healing ability [4] read?
**A.** potent healer of skin wounds

**Q.** For “EGF: epidermal growth factor (NSDSECPLSHDGYCLHDGVCMYIEALDKYACNCVVGYIGERCQYRDLKWWELR; UniProt P01133 971-1023, looked up)”, which Results ([2]; venous (44), 10 μg/mL twice per day, Falanga et al.) is on record?
**A.** N.S.
